Laboratory results published in US4826958A, “Renin inhibiting compounds” (Abbott Laboratories, priority 1988, dated 1989).

target: T1, human renal renin (Homo sapiens, UniProt P00797); assay: inhibition of human renal renin in vitro, angiotensin I formed measured by radioimmunoassay; type: biochemical; details: human renal renin with human renin substrate (angiotensinogen), 37° C., pH 6.0
T1 construct: human renal renin, free from acid proteolytic activity; from tissue; host or cells: human kidney (renal)
T1 sequence (P00797 67-406): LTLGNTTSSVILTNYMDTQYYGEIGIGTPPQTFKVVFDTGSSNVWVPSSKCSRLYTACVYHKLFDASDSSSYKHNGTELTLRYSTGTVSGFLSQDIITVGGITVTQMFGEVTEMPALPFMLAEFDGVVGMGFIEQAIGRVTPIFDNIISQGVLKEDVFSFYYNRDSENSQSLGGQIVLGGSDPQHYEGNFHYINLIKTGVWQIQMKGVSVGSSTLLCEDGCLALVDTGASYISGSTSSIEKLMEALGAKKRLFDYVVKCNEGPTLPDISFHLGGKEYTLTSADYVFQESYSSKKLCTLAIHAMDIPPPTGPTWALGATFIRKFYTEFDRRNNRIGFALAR

Row | Compound | IC50
1 | CC(C)CC(NC(=O)C(Cc1cnc[nH]1)NC(=O)C(Cc1ccccc1)NC(=O)OC(C)(C)C)C(O)CC(=O)NCc1ccccc1 (stereo not drawn) [Example 10, Boc-Phe-His-Sta amide of benzylamine] | 0.7 µM
2 | CC(C)CNC(=O)CC(O)C(CC(C)C)NC(=O)C(Cc1cnc[nH]1)NC(=O)C(Cc1ccccc1)NC(=O)OC(C)(C)C (stereo not drawn) [Example 12, Boc-Phe-His-Sta amide of isobutylamine] | 0.5 µM
3 | CCC(C)C(CO)NC(=O)CC(O)C(CC(C)C)NC(=O)C(C)NC(=O)C(Cc1cccc2ccccc12)NC(=O)OC(C)(C)C (stereo not drawn) [Example 13, Boc-(α-Naphthyl)Ala-Ala-Sta-amide of isoleucinol] | 0.05 µM
4 | CCC(C)CNC(=O)CC(O)C(CC(C)C)NC(=O)C(Cc1cnc[nH]1)NC(=O)C(Cc1ccccc1)NC(=O)CC(C)(C)C (stereo not drawn) [Example 16, t-Butylacetyl-Phe-His-Sta amide of 2-methylbutylamine] | 0.1 µM
5 | CCC(C)CNC(=O)C[C@H](O)[C@H](CC(C)C)NC(=O)[C@H](Cc1c[nH]cn1)NC(=O)[C@H](Cc1ccc(I)cc1)NC(=O)OC(C)(C)C (stereo partly drawn) [Example 17, Boc-p-iodo-Phe-His-Sta amide of 2-methylbutylamine] | 1 µM
6 | CC(C)CCNC(=O)CC(O)C(CC1CCCCC1)NC(=O)C(Cc1cnc[nH]1)NC(=O)C(Cc1ccccc1)NC(=O)OC(C)(C)C (stereo not drawn) [Example 25, Boc-Phe-His-ACHPA amide of isopentylamine] | 0.005 µM
7 | CCC(C)CNC(=O)C(OCc1ccccc1)C(O)C(CC1CCCCC1)NC(=O)[C@H](C)NC(=O)[C@H](Cc1ccccc1)NC(=O)OC(C)(C)C (stereo partly drawn) [Example 32, Boc-Phe-Alaninyl-4-amino-2-benzyloxy-3-hydroxy-5-cyclohexylpentanoic acid amide of 2-methylbutylamine] | 0.006 µM
8 | CCC(C)CNC(=O)C(OCc1ccccc1)C(O)C(CC1CCCCC1)NC(=O)C(Cc1cnc[nH]1)NC(=O)C(Cc1ccccc1)NC(=O)OC(C)(C)C (stereo not drawn) [Example 33, Boc-Phe-Histidinyl-4-amino-2-benzyloxy-3-hydroxy-5-cyclohexylpentanoic acid amide of 2-methylbutylamine] | 0.035 µM
9 | CCC(C)CNC(=O)C(O)C(O)C(CC1CCCCC1)NC(=O)C(C)NC(=O)C(Cc1ccccc1)NC(=O)OC(C)(C)C (stereo not drawn) [Example 34, Boc-Phe-Alaninyl-4-amino-2,3-dihydroxy-5-cyclohexylpentanoic acid amide of 2-methylbutylamine] | 0.02 µM
10 | CCC(C)CNC(=O)C(O)C(O)C(CC1CCCCC1)NC(=O)C(Cc1cnc[nH]1)NC(=O)C(Cc1ccccc1)NC(=O)OC(C)(C)C (stereo not drawn) [Example 35, Boc-Phe-Histidinyl-4-amino-2,3-dihydroxy-5-cyclohexylpentanoic acid amide of 2-methylbutylamine] | 0.007 µM
11 | CCC(C)CNC(=O)C(OC)C(O)C(CC1CCCCC1)NC(=O)[C@H](Cc1cnc[nH]1)NC(=O)[C@H](Cc1ccccc1)NC(=O)OC(C)(C)C (stereo partly drawn) [Example 40, Boc-Phe-Histidinyl-4-amino-2-methoxy-3-hydroxy-5-cyclohexylpentanoic acid amide of 2-methylbutylamine] | 0.03 µM
12 | C=CCC(C(=O)NCC(C)CC)C(O)C(CC1CCCCC1)NC(=O)C(Cc1cnc[nH]1)NC(=O)C(Cc1ccccc1)NC(=O)OC(C)(C)C (stereo not drawn) [Example 45, Boc-Phe-Histidinyl-4-amino-2-allyl-3-hydroxy-5-cyclohexylpentanoic acid amide of 2-methylbutylamine] | 0.001 µM
13 | CCCC(C(=O)NCC(C)CC)C(O)C(CC1CCCCC1)NC(=O)C(Cc1cnc[nH]1)NC(=O)C(Cc1ccccc1)NC(=O)OC(C)(C)C (stereo not drawn) [Example 46, Boc-Phe-Histidinyl-4-amino-2-propyl-3-hydroxy-5-cyclohexylpentanoic acid amide of 2-methylbutylamine] | 0.0015 µM
14 | CCC(C)CNC(=O)C(OC)C(O)C(CC1CCCCC1)NC(=O)C(CCSC)NC(=O)C(Cc1ccccc1)NC(=O)OC(C)(C)C (stereo not drawn) [Example 47, Boc-Phe-Methioninyl-4-amino-2-methoxy-3-hydroxy-5-cyclohexylpentanoic acid amide of 2-methylbutylamine] | 0.001 µM
15 | CCC(C)CNC(=O)C(OC)C(O)C(CC1CCCCC1)NC(=O)C(CSC)NC(=O)C(Cc1ccccc1)NC(=O)OC(C)(C)C (stereo not drawn) [Example 48, Boc-Phe-S-methylcysteinyl-4-amino-2-methoxy-3-hydroxy-5-cyclohexlpentanoic acid amide of 2-methylbutylamine] | 0.0007 µM
16 | C=CCC(C(=O)NCC(C)CC)C(O)C(CC1CCCCC1)NC(=O)C(C)NC(=O)C(Cc1ccccc1)NC(=O)OC(C)(C)C (stereo not drawn) [Example 49, Boc-Phe-Alaninyl-4-amino-2-allyl-3-hydroxy-5-cyclohexylpentanoic acid amide of 2-methylbutylamine] | 0.0015 µM
17 | C=CCC(C(=O)NCC(C)CC)C(O)C(CC1CCCCC1)NC(=O)C(CSC)NC(=O)C(Cc1ccccc1)NC(=O)OC(C)(C)C (stereo not drawn) [Example 50, Boc-Phe-S-methylcysteinyl-4-amino-2-allyl-3-hydroxy-5-cyclohexylpentanoic acid amide of 2-methylbutylamine] | 0.001 µM
18 | CCC(C)CNC(=O)CC(O)C(CC1SCCS1)NC(=O)[C@H](CSC)NC(=O)[C@H](Cc1ccccc1)NC(=O)OC(C)(C)C (stereo partly drawn) [Example 78, Boc-Phe-S-methylcysteinyl-[3-hydroxy-4-amino-5-(1',3'-dithiolan-2'-yl)]-pentanoic acid amide of 2-methylbutylamine] | 0.001 µM
19 | Boc-(α-Naphthyl)-Ala-Ala-Sta amide of benzylamine [Example 11] | 0.4 µM

Continued, values first:

Row | IC50 | Compound
20 | 0.002 µM | 2(R,S)-(4-morpholinylcarbonylmethyl)-3-(1'-naphthyl)-propionyl-His-ACHPA-amide of 2-methylbutylamine [Example 87]
21 | 0.061 µM | 2(R,S)-(4-morpholinylcarbonylmethyl)-3-(4'-methoxyphenyl)-propionyl-His-ACHPA-amide of 2-methylbutylamine [Example 89]
22 | 0.006 µM | CCC(C)CNC(=O)CC(O)C(CC1SCCCS1)NC(=O)C(CSC)NC(=O)C(Cc1ccccc1)NC(=O)OC(C)(C)C (stereo not drawn) [Example 79, Boc-Phe-S-methylcysteinyl-[3-hydroxy-4-amino-5-(1',3'-dithian-2'-yl)]-pentanoic acid amide of 2-methylbutylamine]
23 | 0.6 µM | CCC(C)CNC(=O)CC(O)C(CC1OCCO1)NC(=O)C(CSC)NC(=O)C(Cc1ccccc1)NC(=O)OC(C)(C)C (stereo not drawn) [Example 80, Boc-Phe-S-methylcysteinyl-[3-hydroxy-4-amino-5-(1',3'-dioxolan-2'-yl)]-pentanoic acid amide of 2-methylbutylamine]
24 | 0.7 µM | CCC(C)CNC(=O)CC(O)C(CC1OCCCO1)NC(=O)[C@H](CSC)NC(=O)[C@H](Cc1ccccc1)NC(=O)OC(C)(C)C (stereo partly drawn) [Example 81, Boc-Phe-S-methylcysteinyl-[3-hydroxy-4-amino-5-(1',3'-dioxan-2'-yl)]-pentanoic acid amide of 2-methylbuylamine]
25 | 7.5 µM | CCOC(=O)N[C@@H](Cc1ccccc1)C(=O)N[C@@H](CC(C)C)C(=O)NC(CC1OCCCO1)C(O)CC(=O)NCC(C)CC (stereo partly drawn) [Example 82, Ethoxycarbonyl-Phe-Leu-[3-hydroxy-4-amino-5-(1',3'-dioxan-2'-yl)]-pentanoicacid amide of 2-methylbutylamine]
26 | 0.0015 µM | CCC(C)CNC(=O)CC(O)C(CC1SCCS1)NC(=O)C(Cc1cnc[nH]1)NC(=O)C(Cc1ccccc1)NC(=O)OC(C)(C)C (stereo not drawn) [Example 83, Boc-Phe-His-[3-hydroxy-4-amino-5-(1',3'-dithiolan-2'-yl)]-pentanoic acid amide of 2-methylbutylamine]
27 | 0.00056 µM | CCC(C)CNC(=O)CC(O)C(CC1CCCCC1)NC(=O)C(CSC)NC(=O)C(Cc1ccccc1)NC(=O)N1C[C@@H](O)[C@@H](O)C1 (stereo partly drawn) [Example 95, (3,4-cis-dihydroxypyrrolidinylcarbonyl)-Phe-S-methyl-cys-ACHPA-amide of 2-Methylbutylamine]
28 | 0.016 µM | (3,4-cis-dihydroxypyrrolidinylcarbonyl)-O-methyl-Tyr-O-methyl-Ser-ACHPA Amide of 2-Methylbutylamine [Example 97]
